Data from ChEMBL document CHEMBL1201862, “PubChem BioAssay data set” (2004).
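Step 1: Grow cells in 96-well plates. Step 2: Expose to compound for 48 hours at 5 concentrations. Step 3: Interpolate endpoints linearly; if unreached, use highest concentration. The concentration for 50% growth inhibition is given as GI50.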 The source made the active and inactive calls. Rule as the data show it: active = GI50 up to about 1.1 µM and inactive = higher.

Assays:
Test in all cases: NCI anticancer screen, dose series, 48 h
[1] = tested on: SK-MEL-2
[2] = tested on: M14
[3] = tested on: COLO 205
[4] = tested on: NCI-H460
[5] = tested on: A549
[6] = tested on: SK-MEL-28
[7] = tested on: RXF 393
[8] = tested on: HCT-116
[9] = tested on: SR
[10] = tested on: SNB-19
[11] = tested on: OVCAR-5
[12] = tested on: KM-20L2
[13] = tested on: NCI-H522
[14] = tested on: DMS-273
[15] = tested on: UACC-62
[16] = tested on: HOP-92
[17] = tested on: DMS-114
[18] = tested on: HL-60
[19] = tested on: HCT-15
[20] = tested on: SN12C
[21] = tested on: ACHN
[22] = tested on: NCI-H226
[23] = tested on: SK-OV-3
[24] = tested on: OVCAR-4
[25] = tested on: KM12
[26] = tested on: OVCAR-3
[27] = tested on: MOLT-4
[28] = tested on: SF-268
[29] = tested on: K562
[30] = tested on: SF-539
[31] = tested on: IGROV-1
[32] = tested on: M19-MEL
[33] = tested on: HOP-62
[34] = tested on: XF498
[35] = tested on: EKVX
[36] = tested on: OVCAR-8
[37] = tested on: CAKI-1
[38] = tested on: RPMI-8226
[39] = tested on: UO-31
[40] = tested on: SF-295
[41] = tested on: HT-29
[42] = tested on: TK-10
[43] = tested on: SW-620
[44] = tested on: CCRF-CEM
[45] = tested on: LOX IMVI
[46] = tested on: Malme-3M
[47] = tested on: LXFL 529
[48] = tested on: HCC 2998
[49] = tested on: 786-0
[50] = tested on: NCI/ADR-RES
[51] = tested on: U-251
[52] = tested on: A498
[53] = tested on: Hs-578T
[54] = tested on: PC-3
[55] = tested on: SK-MEL-5
[56] = tested on: T47D
[57] = tested on: MDA-N
[58] = tested on: DU-145
[59] = tested on: MDA-MB-435
[60] = tested on: BT-549
[61] = tested on: NCI-H23
[62] = tested on: MCF7
[63] = tested on: MDA-MB-231
[64] = tested on: UACC-257
[65] = tested on: SNB-75

Measured: GI50

O=c1n(CC2CO2)c2ccccc2n1CC1CS1 (configuration not stated)
> 100 µM: [19]
inactive: [1] > 100 µM | [2] > 100 µM | [3] > 100 µM | [4] > 100 µM | [5] > 100 µM | [6] > 100 µM | [7] 57 µM | [8] 67.3 µM | [9] 44.7 µM | [10] > 100 µM | [11] > 100 µM | [12] > 100 µM | [13] > 100 µM | [14] > 100 µM | [15] 49 µM | [16] > 100 µM | [17] 77.8 µM | [18] 11.1 µM | [20] > 100 µM | [21] > 100 µM | [22] > 100 µM | [23] > 10 µM | [24] > 100 µM | [25] > 100 µM | [26] 78.7 µM | [27] 73.3 µM | [28] 91.8 µM | [29] > 100 µM | [30] > 100 µM | [31] > 100 µM | [32] > 100 µM | [33] > 100 µM | [34] > 100 µM | [35] > 100 µM | [36] > 100 µM | [37] 45.1 µM | [38] 36.3 µM | [39] > 100 µM | [40] > 100 µM | [41] > 10 µM | [42] > 100 µM | [43] > 100 µM | [44] 63.2 µM | [45] 71 µM | [46] > 100 µM | [47] 88.9 µM | [48] > 100 µM

COC(=O)NC(Cc1ccccc1)NC(=O)OC(C)(C)C (configuration not stated)
inactive: [49] > 100 µM | [50] > 100 µM | [51] > 100 µM | [1] > 100 µM | [2] > 100 µM | [3] > 100 µM | [52] > 100 µM | [4] > 100 µM | [5] > 100 µM | [6] > 100 µM | [53] > 100 µM | [7] > 100 µM | [54] > 100 µM | [55] > 100 µM | [8] > 100 µM | [9] > 100 µM | [10] > 100 µM | [11] > 100 µM | [13] 96.4 µM | [56] > 100 µM | [15] > 100 µM | [57] > 100 µM | [58] > 100 µM | [16] > 100 µM | [59] > 100 µM | [18] > 100 µM | [60] > 100 µM | [20] > 100 µM | [61] > 100 µM | [21] > 100 µM | [22] > 100 µM | [23] > 100 µM | [24] > 100 µM | [25] > 100 µM | [26] > 100 µM | [27] > 100 µM | [28] > 100 µM | [29] > 100 µM | [30] > 100 µM | [31] > 100 µM | [62] > 100 µM | [33] > 100 µM | [35] > 100 µM | [63] > 100 µM | [36] > 100 µM | [37] > 100 µM | [38] > 100 µM | [39] > 100 µM | [40] > 100 µM | [41] > 100 µM | [42] > 100 µM | [43] > 100 µM | [44] > 100 µM | [45] > 100 µM | [64] > 100 µM | [46] > 100 µM | [48] > 100 µM | [65] > 100 µM
> 100 µM: [19]
